In patent US9221802B2, “Arylethynyl derivatives” (Hoffmann-La Roche Inc., priority 2012, dated 2015):
pEC50: −log10 of the molar value. Where two headings read alike, the source gives them in different places.

Legend:
human mGlu5a receptor = human mGlu5a receptor (Homo sapiens (Human), UniProt P41594); test: Intracellular Ca2+ mobilization assay; type: cell-based; conditions: for pEC50 / EC50: HEK-293 cells expressing human mGlu5a; for pEC50: PAM activity in presence of EC20 L-glutamate, read-out: Ec50; for Emax: maximal response in % of maximal stimulatory effect of saturating L-glutamate, read-out: Efficacy [%]; for EC50: PAM activity, read-out: EC50 (nM) mGlu5 PAM
Experimental: A monoclonal HEK-293 cell line stably transfected with a cDNA encoding for the human mGlu5a receptor was generated; for the work with mGlu5 Positive Allosteric Modulators (PAMs), a cell line with low receptor expression levels and low constitutive receptor activity was selected to allow the differentiation of agonistic versus PAM activity. Cells were cultured according to standard protocols (Freshney, 2000) in Dulbecco's Modified Eagle Medium with high glucose supplemented with 1 mM glutamine, 10% (vol/vol) heat-inactivated bovine calf serum, Penicillin/Streptomycin, 50 μg/ml hygromycin and 15 μg/ml blasticidin (all cell culture reagents and antibiotics from Invitrogen, Basel, Switzerland).
About 24 hrs before an experiment, 5×10^4 cells/well were seeded in poly-D-lysine coated, black/clear-bottomed 96-well plates. The cells were loaded with 2.5 μM Fluo-4AM in loading buffer (1×HBSS, 20 mM HEPES) for 1 hr at 37° C. and washed five times with loading buffer. The cells were transferred into a Functional Drug Screening System 7000 (Hamamatsu, Paris, France), and 11 half logarithmic serial dilutions of test compound at 37° C. were added and the cells were incubated for 10-30 min. with on-line recording of fluorescence. Following this pre-incubation step, the agonist L-glutamate was added to the cells at a concentration corresponding to EC20 (typically around 80 μM) with on-line recording of fluorescence; in order to account for day-to-day variations in the responsiveness of cells, the EC20 of glutamate was determined immediately ahead of each experiment by recording of a full dose-response curve of glutamate. Responses were measured as peak increase in fluorescence minus basal (i.e. fluorescence without addition of L-glutamate), normalized to the maximal stimulatory effect obtained with saturating concentrations of L-glutamate. Graphs were plotted with the % maximal stimulatory using XLfit, a curve fitting program that iteratively plots the data using Levenburg Marquardt algorithm. The single site competition analysis equation used was y=A+((B−A)/(1+((x/C)D))), where y is the % maximal stimulatory effect, A is the minimum y, B is the maximum y, C is the EC50, x is the log 10 of the concentration of the competing compound and D is the slope of the curve (the Hill Coefficient). From these curves the EC50 (concentration at which half maximal stimulation was achieved), the Hill coefficient as well as the maximal response (=Efficacy) in % of the maximal stimulatory effect obtained with saturating concentrations of L-glutamate were calculated.
A depression of the signal observed after addition of the EC20 concentration of L-glutamate was indicative of an inhibitory activity of the test compound.
The Intracellular Ca^2+ mobilization assay as described before was used for determination of EC50 values.

[1] = Glutathione (GSH) addition assay after metabolic activation; type: in vitro ADME, human; design: key: Samples for which the mass of a covalent adduct to a reactive metabolite was clearly detected are indicated as FLAG (positive); Compounds for which no adduct was detected are designated NO FLAG (negative); conditions: glutathione adduct detection after metabolic activation
Experimental: The assay conditions for the detection of glutathione conjugates follow the procedure described by C. M. Dieckhaus et al. in Chem. Res. Toxicol., 18, 630-638 (2005). Samples for which the mass of a covalent adduct to a reactive metabolite was clearly detected are indicated as FLAG (positive). Compounds for which no adduct was detected are designated NO FLAG (negative).
The “gold standard” CVB (covalent binding) assay, which detects the formation of covalent adducts by incubation of test compounds with human liver microsomes (HLM) needs to be conducted with 14C-labelled material. This is not appropriate for routine screening purposes. The glutathione assay after metabolic activation (see assay description) is appropriate for routine screening, and compounds that show significant activity in this assay are very likely to show activity in the CVB assay. […] Generally speaking, compounds of the present invention therefore have a clear advantage with respect to drug safety due to their much less pronounced tendency to form reactive metabolites compared to structurally similar compounds of prior art.

Chain of human mGlu5a receptor (P41594 other isoform, or with tags, fused parts or gaps): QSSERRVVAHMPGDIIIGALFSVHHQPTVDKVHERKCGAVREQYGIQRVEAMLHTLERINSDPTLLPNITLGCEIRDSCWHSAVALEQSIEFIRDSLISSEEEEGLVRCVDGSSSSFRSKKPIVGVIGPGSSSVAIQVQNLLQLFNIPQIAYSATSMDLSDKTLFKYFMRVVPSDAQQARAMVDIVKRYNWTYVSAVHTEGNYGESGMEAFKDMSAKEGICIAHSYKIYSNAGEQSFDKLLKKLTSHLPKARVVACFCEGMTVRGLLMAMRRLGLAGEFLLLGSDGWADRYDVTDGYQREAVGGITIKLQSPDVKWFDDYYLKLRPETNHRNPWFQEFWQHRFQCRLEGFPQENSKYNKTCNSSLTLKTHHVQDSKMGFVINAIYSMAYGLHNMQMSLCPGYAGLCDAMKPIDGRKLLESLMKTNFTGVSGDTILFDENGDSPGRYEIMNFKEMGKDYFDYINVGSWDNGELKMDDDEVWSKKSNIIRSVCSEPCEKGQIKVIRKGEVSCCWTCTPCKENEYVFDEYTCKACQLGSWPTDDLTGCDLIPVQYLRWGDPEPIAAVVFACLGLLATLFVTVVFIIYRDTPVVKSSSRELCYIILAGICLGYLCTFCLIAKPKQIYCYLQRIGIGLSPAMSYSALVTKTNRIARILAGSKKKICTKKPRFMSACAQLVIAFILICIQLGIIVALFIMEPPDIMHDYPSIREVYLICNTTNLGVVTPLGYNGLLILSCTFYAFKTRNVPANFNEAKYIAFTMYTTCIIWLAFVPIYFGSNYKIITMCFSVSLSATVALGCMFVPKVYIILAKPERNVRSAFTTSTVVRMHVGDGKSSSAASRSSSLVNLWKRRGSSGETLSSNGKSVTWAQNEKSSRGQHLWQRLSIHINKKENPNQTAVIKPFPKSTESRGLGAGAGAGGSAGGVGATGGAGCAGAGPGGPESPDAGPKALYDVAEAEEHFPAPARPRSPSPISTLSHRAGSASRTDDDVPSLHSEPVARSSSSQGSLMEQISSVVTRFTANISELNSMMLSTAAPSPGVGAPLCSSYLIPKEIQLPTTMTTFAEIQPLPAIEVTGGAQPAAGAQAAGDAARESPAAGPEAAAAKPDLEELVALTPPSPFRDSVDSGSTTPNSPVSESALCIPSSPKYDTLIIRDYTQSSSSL

Row | EC50 (human mGlu5a receptor) [nM] | Structure (SMILES) | pEC50 (human mGlu5a receptor) | Emax (human mGlu5a receptor) [%] | GSH [HLM] [1]
1 |  | CC1(C)CCN(c2ccc(C#Cc3cccc(F)c3)cn2)C(=O)O1 [Ref. Ex. 76] | 7.89 | 124 | FLAG
2 |  | CC1(C)CCN(c2ccc(C#Cc3ccccc3)cn2)C(=O)O1 [Ref. Ex. 72] | 8.00 | 86 | FLAG
3 |  | CC1(C)CCN(c2ccc(C#Cc3cc(F)ccc3F)cn2)C(=O)O1 [Ref. Ex. 81] | 7.92 | 95 | FLAG
4 | 22 | O=C1OC[C@H]2CCC[C@H]2N1c1ccc(C#Cc2ccccc2)cn1 [Ex. 1, (4aS,7aR)-1-(5-Phenylethynyl-pyridin-2-yl)-hexahydro-cyclopenta[d][1,3]oxazin-2-one] | 7.66 | 38 | NO FLAG
5 | 10 | O=C1OC[C@H]2CCC[C@H]2N1c1ccc(C#Cc2ccc(F)cc2)cn1 [Ex. 3, (4aS,7aR)-1-[5-(4-Fluorophenylethynyl)-pyridin-2-yl]-hexahydro-cyclopenta[d][1,3]oxazin-2-one] | 8.00 | 40 | NO FLAG
6 | 15 | O=C1OC[C@H]2CCC[C@H]2N1c1ccc(C#Cc2cc(F)ccc2F)cn1 [Ex. 4, (4aS,7aR)-1-[5-(2,5-Difluorophenylethynyl)-pyridin-2-yl]-hexahydro-cyclopenta[d]-[1,3]oxazin-2-one] | 7.82 | 35 | NO FLAG
7 |  | O=C1O[C@H]2CCC[C@H]2CN1c1ccc(C#Cc2ccccc2)cn1 [Ref. Ex. 103] | 7.57 | 123 | FLAG
8 |  | CC1(C)COC(=O)N(c2ccc(C#Cc3ccccc3)cn2)C1 [Ref. Ex. 20] | 7.57 | 135 | 
9 |  | CC1(C)CCN(c2ccc(C#Cc3ccc(F)cc3)cn2)C(=O)O1 [Ref. Ex. 79] | 7.66 | 85 | FLAG
10 | 10 | O=C1OC[C@H]2CCC[C@H]2N1c1ccc(C#Cc2cccc(F)c2)cn1 [Ex. 2, (4aS,7aR)-1-[5-(3-Fluorophenylethynyl)-pyridin-2-yl]-hexahydro-cyclopenta[d][1,3]oxazin-2-one] | 8.00 | 43 | NO FLAG
